Measurements: BindingDB's records for patent US9926282 (Bristol-Myers Squibb, 2018)

These compounds were tested against Rho-associated protein kinase 1 (Homo sapiens, UniProt Q13464) (assay: In Vitro Assay).
Protocol: Compounds were dissolved in DMSO so that the final concentration of DMSO was <2%, and the reaction was initiated with Rho kinase variants. After incubation, the reaction was terminated by the addition of EDTA and the phosphorylated and non-phosphorylated peptides separated using a LABCHIP 3000 Reader (Caliper Life Sciences). […] Compounds were tested in dose-response format, and the inhibition of kinase activity was calculated at each concentration of compound.

Sequence of Rho-associated protein kinase 1 (Q13464 whole entry): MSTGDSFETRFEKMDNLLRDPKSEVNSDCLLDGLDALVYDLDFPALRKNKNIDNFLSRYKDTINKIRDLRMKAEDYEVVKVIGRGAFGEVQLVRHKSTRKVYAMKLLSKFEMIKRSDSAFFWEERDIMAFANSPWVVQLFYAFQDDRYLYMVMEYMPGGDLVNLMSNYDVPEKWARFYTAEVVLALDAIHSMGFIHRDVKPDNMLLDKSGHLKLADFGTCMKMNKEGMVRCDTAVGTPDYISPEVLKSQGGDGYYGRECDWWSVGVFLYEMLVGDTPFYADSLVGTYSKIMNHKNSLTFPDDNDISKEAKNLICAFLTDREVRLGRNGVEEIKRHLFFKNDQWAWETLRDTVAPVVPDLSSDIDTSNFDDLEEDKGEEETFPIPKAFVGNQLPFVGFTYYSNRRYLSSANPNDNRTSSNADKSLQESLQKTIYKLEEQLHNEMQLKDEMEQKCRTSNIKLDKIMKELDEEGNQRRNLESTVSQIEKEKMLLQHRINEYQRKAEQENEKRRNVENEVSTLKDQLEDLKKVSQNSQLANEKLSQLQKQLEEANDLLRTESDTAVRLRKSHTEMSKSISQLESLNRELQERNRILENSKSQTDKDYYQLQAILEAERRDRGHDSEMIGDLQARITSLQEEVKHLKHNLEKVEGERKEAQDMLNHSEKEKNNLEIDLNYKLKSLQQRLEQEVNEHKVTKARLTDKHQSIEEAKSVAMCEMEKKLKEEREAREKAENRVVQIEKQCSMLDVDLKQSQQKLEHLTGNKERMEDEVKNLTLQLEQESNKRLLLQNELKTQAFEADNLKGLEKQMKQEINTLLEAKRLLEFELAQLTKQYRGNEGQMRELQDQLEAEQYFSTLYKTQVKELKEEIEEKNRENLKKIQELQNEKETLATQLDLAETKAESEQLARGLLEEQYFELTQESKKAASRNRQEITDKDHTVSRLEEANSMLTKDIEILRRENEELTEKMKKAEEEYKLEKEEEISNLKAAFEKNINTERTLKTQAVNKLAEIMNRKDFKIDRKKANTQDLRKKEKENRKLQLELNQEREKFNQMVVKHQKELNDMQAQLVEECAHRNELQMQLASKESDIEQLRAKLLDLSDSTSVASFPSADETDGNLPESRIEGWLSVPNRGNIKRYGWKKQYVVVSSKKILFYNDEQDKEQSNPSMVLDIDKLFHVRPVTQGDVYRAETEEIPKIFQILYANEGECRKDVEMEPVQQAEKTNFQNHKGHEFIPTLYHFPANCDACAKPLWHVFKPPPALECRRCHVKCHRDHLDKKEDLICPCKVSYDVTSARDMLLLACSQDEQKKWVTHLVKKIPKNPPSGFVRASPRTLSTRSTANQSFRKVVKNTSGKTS

| IC50 | SMILES |
| --- | --- |
| < 0.1 µM | O=C(Nc1ccc(-c2n[nH]c(=O)c3ccccc23)cc1)c1cc2ncccn2n1 [US9926282, Example 102] |
| < 0.1 µM | O=C(Nc1ccc(-c2n[nH]c(=O)c3ccccc23)cc1)c1c[nH]c2ncc(F)cc12 [US9926282, Example 120] |
| < 0.1 µM | CCc1c(C(=O)Nc2ccc(-c3n[nH]c(=O)c4ccccc34)cc2)nnn1-c1cccc(Cl)c1 [US9926282, Example 225] |
| < 0.1 µM | O=C(Nc1ccc(-c2n[nH]c(=O)c3ccccc23)cc1)c1cnn(C2CCCC2)c1 [US9926282, Example 374] |
| < 0.1 µM | O=C(Nc1ccc(-c2n[nH]c(=O)c3ccccc23)cc1)c1cnn(CC(O)C(F)(F)F)c1 (centres undefined) [US9926282, Example 378] |

| SMILES | IC50 |
| --- | --- |
| O=C(Nc1ccc(-c2n[nH]c(=O)c3ccccc23)c(Cl)c1)c1nn(CC2CNC2)c2ccccc12 [US9926282, Example 327] | < 0.1 µM |
| O=C(Nc1ccc(-c2n[nH]c(=O)c3ccccc23)cc1)c1nn(CC2CCNCC2)c2ccccc12 [US9926282, Example 342] | < 0.1 µM |
| O=C(Nc1ccc(-c2n[nH]c(=O)c3ccccc23)cc1)c1cnn(C2CCCCC2)c1 [US9926282, Example 373] | < 0.1 µM |
| CCCn1cc(C(=O)Nc2ccc(-c3n[nH]c(=O)c4ccccc34)cc2)cn1 [US9926282, Example 382] | < 0.1 µM |
